What follows are compounds tested on RSV Long strain (assay: Viral cytopathic effect (CPE) assay, anti-RSV activity). Conditions: RSV Long strain (ATCC); cell viability after 6 days, Cell Counting kit-8.
Assay type: cell-based, Respiratory Syncytial Virus
Summary of the method: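 Cells (6×10^3/well, DMEM with 10% FBS) were infected next day with RSV Long strain, at a dose giving approximately 80–90% CPE, alongside serial half-log compound dilutions. Viability was read after 6 days by CCK-8 absorbance at 450 nm (reference 630 nm), and EC50 was derived from it.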

SMILES | EC50 [µM]
Cc1ccc2nc(N3CCS(=O)(=O)c4ccccc4C3)nc(NCC(F)CCN)c2c1 (centres unmarked) [Example 62-5, N^˜1^˜-[2-(1,1-Dioxido-2,3-dihydro-1,4-benzothiazepin-4(5H)-yl)-6-methylquinazolin-4-yl]-2-fluorobutane-1,4-diamine] | 0.017

Same assay, conditions: human respiratory syncytial virus, 144 h, RSV Long strain (ATCC); cell viability after 6 days, Cell Counting kit-8

SMILES | EC50 [µM]
CCNC1(CNc2cc(N3CCS(=O)(=O)c4ccccc4C3)nc3ccc(C)cc23)COC1 [Example 43, 2-(1,1-Dioxido-2,3-dihydro-1,4-benzothiazepin-4(5H)-yl)-N-{[3-(ethylamino)oxetan-3-yl]methyl}-6-methylquinolin-4-amine] | 0.017
NCCNc1cc(N2CCCc3ccccc3C2)nc2ccc(Cl)cc12 [Example 118-5, N-[6-Chloro-2-(1,3,4,5-tetrahydro-2H-2-benzazepin-2-yl)quinolin-4-yl]ethane-1,2-diamine] | 0.178
Clc1ccc2nc(N3CCCc4ccccc4C3)ccc2c1 [Example 130-1, 2-(6-Chloroquinolin-2-yl)-2,3,4,5-tetrahydro-1H-2-benzazepine] | 6.84
NC1(CNc2cc(N3CCS(=O)(=O)c4ccccc4C3)nc3ccc(Cl)cc23)COC1 [Example 3-22, N-[(3-Aminooxetan-3-yl)methyl]-6-chloro-2-(1,1-dioxido-2,3-dihydro-1,4-benzothiazepin-4(5H)-yl)quinolin-4-amine] | 0.032
Cc1ccc2nc(N3CCS(=O)(=O)c4ccccc4C3)cc(N3C[C@H](O)CC3=O)c2c1 [Example 47-1, (4R)-1-[2-(1,1-Dioxido-2,3-dihydro-1,4-benzothiazepin-4(5H)-yl)-6-methylquinolin-4-yl]-4-hydroxypyrrolidin-2-one] | 7.88
C=Cc1ccc2nc(N3CCS(=O)(=O)c4ccccc4C3)cc(NCCCN)c2c1 [Example 53, N-[2-(1,1-Dioxido-2,3-dihydro-1,4-benzothiazepin-4(5 H)-yl)-6-ethenylquinolin-4-yl]propane-1,3-diamine] | 0.094
CNCCNc1cc(N2CCC(F)(F)c3ccccc3C2)nc2ccc(C)cc12 [Example 110-3, N-[2-(5,5-Difluoro-1,3,4,5-tetrahydro-2H-2-benzazepin-2-yl)-6-methylquinolin-4-yl]-N′-methylethane-1,2-diamine] | 0.161
CNCCNc1cc(N2CCCc3ccccc3C2)nc2ccccc12 [Example 118-14, N-Methyl-N′-[2-(1,3,4,5-tetrahydro-2H-2-benzazepin-2-yl)quinolin-4-yl]ethane-1,2-diamine] | 0.616
Cc1ccc2nc(N3CCS(=O)(=O)c4ccccc4C3)nc(NCC(O)CO)c2c1 (centres unmarked) [Example 87-1, 3-{[2-(1,1-Dioxido-2,3-dihydro-1,4-benzothiazepin-4(5H)-yl)-6-methylquinazolin-4-yl]amino}propane-1,2-diol] | 0.096
Cc1ccc2nc(N3CCSc4ccccc4C3)cc(NCC3(N)COC3)c2c1 [Example 4-3, N-[(3-Aminooxetan-3-yl)methyl]-2-(2,3-dihydro-1,4-benzothiazepin-4(5 H)-yl)-6-methylquinolin-4-amine] | 0.026
Cc1ccc2nc(N3CCS(=O)(=O)c4ccccc4C3)cc(NCCN(C)C)c2c1 [Example 3-32, N′-[2-(1,1-Dioxido-2,3-dihydro-1,4-benzothiazepin-4(5H)-yl)-6-methylquinolin-4-yl]-N,N-dimethylethane-1,2-diamine] | 0.037
Cc1ccc2nc(N3CCS(=O)(=O)c4cc(Cl)ccc4C3)cc(NCC(O)CO)c2c1 (centres unmarked) [Example 32-3, 3-{[2-(8-Chloro-1,1-dioxido-2,3-dihydro-1,4-benzothiazepin-4(5H)-yl)-6-methylquinolin-4-yl]amino}propane-1,2-diol] | 1.99
Cc1cc2c(NCCO)cc(N3CCS(=O)(=O)c4ccccc4C3)nc2cc1F [Example 9-23, 2-{[2-(1,1-Dioxido-2,3-dihydro-1,4-benzothiazepin-4(5H)-yl)-7-fluoro-6-methylquinolin-4-yl]amino}ethanol] | 3.02
Cc1ccc2nc(N3CCS(=O)(=O)c4ccccc4C3)cc(NCC3(N)COC3)c2c1 [Example 2-2, N-[(3-Aminooxetan-3-yl)methyl]-2-(1,1-dioxido-2,3-dihydro-1,4-benzothiazepin-4(5H)-yl)-6-methylquinolin-4-amine] | 0.002
Cc1ccc2nc(N3CCS(=N)(=O)c4ccccc4C3)cc(N3CC(N)C(O)C3)c2c1 (stereo not drawn) [Example 78-1, trans-4-Amino-1-[2-(1-imino-1-oxido-1,2,3,5-tetrahydro-4H-1lambda˜4˜,4-benzothiazepin-4-yl)-6-methylquinolin-4-yl]pyrrolidin-3-ol] | 0.016
Cc1ccc2nc(N3CCC(F)(F)c4ccccc4C3)nc(NCC3(N)CS(=O)(=O)C3)c2c1 [Example 116-2, N-[(3-Amino-1,1-dioxidothietan-3-yl)methyl]-2-(5,5-difluoro-1,3,4,5-tetrahydro-2H-2-benzazepin-2-yl)-6-methylquinazolin-4-amine] | 0.309
COc1ccc2nc(N3CCS(=O)(=O)c4ccccc4C3)cc(NCCCN)c2c1 [Example 17-4, N-[2-(1,1-Dioxido-2,3-dihydro-1,4-benzothiazepin-4(5H)-yl)-6-methoxyquinolin-4-yl]propane-1,3-diamine] | 0.071

SMILES | EC50 [µM]
Cc1ccc2nc(N3CCCc4cc(F)ccc4C3)cc(NCCN)c2c1 [Example 118-13, N-[2-(7-Fluoro-1,3,4,5-tetrahydro-2H-2-benzazepin-2-yl)-6-methylquinolin-4-yl]ethane-1,2-diamine] | 0.463
Cc1ccc2nc(N3CCS(=O)(=O)c4ccccc4C3)cc(NC(=O)C3CCNCC3)c2c1 [Example 3-62, N-[2-(1,1-Dioxido-2,3-dihydro-1,4-benzothiazepin-4(5H)-yl)-6-methylquinolin-4-yl]piperidine-4-carboxamide] | 0.589
Cc1ccc2nc(N3CCS(=O)(=O)c4ccccc4C3)cc(NCC(C)(C)N)c2c1 [Example 5-3, N˜1˜-[2-(1,1-Dioxido-2,3-dihydro-1,4-benzothiazepin-4(5H)-yl)-6-methylquinolin-4-yl]-2-methylpropane-1,2-diamine] | 0.015
Cc1ccc2nc(N3CCS(=O)(=O)c4ccccc4C3)cc(N3C(=O)NCC34COC4)c2c1 [Example 86, 5-[2-(1,1-Dioxido-2,3-dihydro-1,4-benzothiazepin-4(5H)-yl)-6-methylquinolin-4-yl]-2-oxa-5,7-diazaspiro[3.4]octan-6-one] | 2.22
Cc1ccc2nc(N3CCS(=O)(=O)c4ccccc4C3)cc(N)c2c1 [Example 39, 2-(1,1-Dioxido-2,3-dihydro-1,4-benzothiazepin-4(5H)-yl)-6-methylquinolin-4-amine] | 0.092
Cc1ccc2nc(N3CCC(C)(O)c4ccccc4C3)nc(NCC3(N)COC3)c2c1 (centres unmarked) [Example 115, 2-(4-{[(3-Aminooxetan-3-yl)methyl]amino}-6-methylquinazolin-2-yl)-5-methyl-2,3,4,5-tetrahydro-1H-2-benzazepin-5-ol] | 0.01
Cc1ccc2nc(N3CCS(=O)(=O)c4c(F)cccc4C3)cc(NCC3(N)COC3)c2c1 [Example 1-4, N-[(3-Aminooxetan-3-yl)methyl]-2-(9-fluoro-1,1-dioxido-2,3-dihydro-1,4-benzothiazepin-4(5H)-yl)-6-methylquinolin-4-amine] | 0.004
Cc1ccc2nc(N3CCS(=O)(=O)c4ccccc4C3)cc(Nc3cc[nH]n3)c2c1 [Example 47-3, 2-(1,1-Dioxido-2,3-dihydro-1,4-benzothiazepin-4(5H)-yl)-6-methyl-N-(1H-pyrazol-3-yl)quinolin-4-amine] | 5.69
NCCNc1cc(N2CCCc3ccccc3C2)nc2cccc(Cl)c12 [Example 119, N-[5-Chloro-2-(1,3,4,5-tetrahydro-2H-2-benzazepin-2-yl)quinolin-4-yl]ethane-1,2-diamine] | 6.66
Cc1ccc2nc(N3CCS(=O)(=O)c4ccccc4C3)cc(NC[C@H](O)CO)c2c1 [Example 3-10, (2S)-3-{[2-(1,1-Dioxido-2,3-dihydro-1,4-benzothiazepin-4(5H)-yl)-6-methylquinolin-4-yl]amino}propane-1,2-diol] | 0.053
Cc1ccc2nc(N3CCS(=O)(=O)c4ccccc4C3)cc(N(C)C)c2c1 [Example 16-2, 2-(1,1-Dioxido-2,3-dihydro-1,4-benzothiazepin-4(5H)-yl)-N,N,6-trimethylquinolin-4-amine] | 9.64
Cc1ccc2nc(N3CCS(=O)(=O)c4cc(Cl)ccc4C3)cc(NCC3(N)COC3)c2c1 [Example 1-6, N-[(3-Aminooxetan-3-yl)methyl]-2-(8-chloro-1,1-dioxido-2,3-dihydro-1,4-benzothiazepin-4(5H)-yl)-6-methylquinolin-4-amine] | 0.022
Cc1ccc2nc(N3CCS(=O)(=O)c4ccccc4C3)cc(NCC(C)C(N)=O)c2c1 (centres unmarked) [Example 36-3, 3-{[2-(1,1-Dioxido-2,3-dihydro-1,4-benzothiazepin-4(5H)-yl)-6-methylquinolin-4-yl]amino}-2-methylpropanamide] | 2.15
Cc1ccc2nc(N3CCC(F)(F)c4ccccc4C3)cc(NCC(O)CN)c2c1 (centres unmarked) [Example 110-4, 1-Amino-3-{[2-(5,5-difluoro-1,3,4,5-tetrahydro-2H-2-benzazepin-2-yl)-6-methylquinolin-4-yl]amino}propan-2-ol] | 0.06
Cc1ccc2nc(N3CCS(=O)(=O)c4ccccc4C3)cc(NCC[S+](C)[O-])c2c1 (centres unmarked) [Example 74, 2-(1,1-Dioxido-2,3-dihydro-1,4-benzothiazepin-4(5H)-yl)-6-methyl-N-[2-(methylsulfinyl)ethyl]quinolin-4-amine] | 1.94
Cc1ccc2nc(N3CCS(=O)(=O)c4ccccc4C3)cc(NCCC3(N)COC3)c2c1 [Example 2-7, N-[2-(3-Aminooxetan-3-yl)ethyl]-2-(1,1-dioxido-2,3-dihydro-1,4-benzothiazepin-4(5H)-yl)-6-methylquinolin-4-amine] | 0.234
Cc1ccc2nc(N3CCC(F)(F)c4ccccc4C3)nc(NCC3(N)COC3)c2c1 [Example 116-1, N-[(3-Aminooxetan-3-yl)methyl]-2-(5,5-difluoro-1,3,4,5-tetrahydro-2H-2-benzazepin-2-yl)-6-methylquinazolin-4-amine] | 0.005

From US8871756B2 (Hoffmann-La Roche Inc., priority 2011, dated 2014)
